In ChEMBL document CHEMBL1201862, “PubChem BioAssay data set” (2004):
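Method: 48-hour compound exposure of cells in 96-well plates, five concentrations, linear interpolation of endpoints. GI50 = concentration required for 50% inhibition of growth.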 Activity calls are given as the source filed them. Cut-off read from the data, not from the text of the source: active = GI50 up to about 1.1 µM and inactive = higher.

Experiments:
Assay in all cases: NCI tumour cell line growth inhibition, 48 h
[1] = tested on: SN12C
[2] = tested on: SF-539
[3] = tested on: HCC 2998
[4] = tested on: NCI/ADR-RES
[5] = tested on: HT-29
[6] = tested on: UACC-62
[7] = tested on: MOLT-4
[8] = tested on: SK-OV-3
[9] = tested on: NCI-H522
[10] = tested on: Hs-578T
[11] = tested on: K562
[12] = tested on: SK-MEL-2
[13] = tested on: COLO 205
[14] = tested on: M14
[15] = tested on: KM12
[16] = tested on: NCI-H460
[17] = tested on: SR
[18] = tested on: SF-295
[19] = tested on: MDA-N

Measured: GI50

O=C(Nc1ccccc1C(=O)NCc1ccccc1)/C(=C/c1ccccc1O)NC(=O)c1ccccc1
inactive: [1] > 100 µM | [2] > 100 µM | [3] > 100 µM | [4] 88.5 µM | [5] > 100 µM | [6] 33.7 µM | [7] > 100 µM | [8] 48.9 µM | [9] > 100 µM | [10] 69 µM | [11] > 100 µM | [12] > 100 µM | [13] > 100 µM | [14] > 100 µM | [15] 4.67 µM | [16] > 100 µM | [17] > 100 µM | [18] 49.9 µM

CCC(C)C1=C(OC(C)=O)[N+]2([O-])Oc3ccc(-c4c(OC(C)=O)c(OC(C)=O)c(-c5ccc(OC(C)=O)cc5)c(OC(C)=O)c4OC(C)=O)cc3OC2(C(C)CC)C(=O)N1OC(C)=O (stereo not drawn)
inactive: [1] 34.3 µM | [2] 42.3 µM | [4] > 50 µM | [5] 19.9 µM | [6] 9.06 µM | [7] 11.1 µM | [8] 43 µM | [9] 8.53 µM | [19] 12.3 µM | [11] 12.2 µM | [12] 14.9 µM | [13] 18.8 µM | [14] 20.1 µM | [15] 19.3 µM | [16] 18.9 µM | [17] 13.7 µM | [18] 8.69 µM

CN(c1ccccc1)C(c1ccccc1)C(O)c1ccccc1 (stereo not drawn)
inactive: [1] 17.1 µM | [2] 22.1 µM | [3] 22.9 µM | [5] 17.9 µM | [6] 17.9 µM | [7] 12.8 µM | [8] 22.6 µM | [9] 20 µM | [11] 17.2 µM | [12] 16.7 µM | [13] 16.3 µM | [14] 16.6 µM | [15] 17.9 µM | [16] 20.1 µM | [17] 20.6 µM | [18] 15.8 µM

COc1ccccc1N1C(=O)/C(=C/c2ccc(N(CCC#N)CCC#N)cc2C)N=C1c1cc([N+](=O)[O-])ccc1Cl
inactive: [1] > 100 µM | [2] > 100 µM | [3] > 100 µM | [5] > 100 µM | [7] > 100 µM | [8] > 100 µM | [9] > 100 µM | [11] > 100 µM | [12] > 100 µM | [13] > 100 µM | [14] 68.2 µM | [15] > 100 µM | [16] > 100 µM | [17] > 100 µM | [18] > 100 µM

COc1ccc(OCC(=O)O)c(C(=O)CCC(=O)O)c1
inactive: [1] > 100 µM | [2] > 100 µM | [3] > 100 µM | [5] > 100 µM | [6] > 10 µM | [7] > 100 µM | [8] > 100 µM | [9] > 100 µM | [11] > 100 µM | [12] > 100 µM | [13] > 100 µM | [14] > 10 µM | [15] > 100 µM | [16] > 100 µM | [17] > 100 µM | [18] > 100 µM

CCC(Oc1ccc(OC)c2ccccc(=O)c12)C(=O)O (stereo not drawn)
inactive: [1] > 100 µM | [2] > 100 µM | [3] > 100 µM | [5] > 100 µM | [6] > 100 µM | [7] > 100 µM | [8] > 100 µM | [9] > 100 µM | [11] > 100 µM | [12] > 100 µM | [13] > 100 µM | [14] > 100 µM | [15] > 100 µM | [16] > 100 µM | [17] > 100 µM | [18] > 100 µM
